The test system of this data set is P-glycoprotein (Pgp, MDR1). Description: MDCKII-MDR1 permeability and Pgp efflux. The class given is in vitro ADME. Particulars: dog.

Structures are written as SMILES.

By Papp A→B is commonly meant how fast a substance crosses the layer from the apical side. Low values mean slow passage, high ones fast passage. The term Papp B→A denotes how fast a substance crosses the layer from the basolateral side. By efflux ratio is commonly meant the permeability from basolateral to apical divided by that in the opposite direction, in the common usage. Take `COCCc1ccc(OCC(O)CNC(C)C)cc1` (centres unmarked) [metoprolol]: where the note is “MDCK-MDR1”, the Papp A→B is 28.6 ×10⁻⁶ cm/s, the Papp B→A was 28 ×10⁻⁶ cm/s and the efflux ratio was 0.98. Also, for the setting “MDCK-MDR1, recovery (%) A-B, MDCKII-MDR1, A-B”, the recovery is 109%. Further, under “MDCK-MDR1, recovery (%) B-A, MDCKII-MDR1, B-A”, the recovery stood at 97.4%.

These data come from publication PMC13349481 (ACS chemical biology, 2025).
